Key:
[1] = tested on: corn; test: Test A postemergence; format: in vivo, Zea mays
Description: (§1) Seeds of plant species selected from barnyardgrass (Echinochloa crus-galli), kochia (Kochia scoparia), common ragweed (Ambrosia elation), Italian ryegrass (Lolium multiflorum), crabgrass, large (large crabgrass, Digitaria sanguinalis), foxtail, giant (giant foxtail, Setaria faberii), morningglory (Ipomoea spp.), pigweed (redroot pigweed, Amaranthus retroflexus), velvetleaf (Abutilon theophrasti), wheat (Triticum aestivum), and corn (Zea mays) were planted into a blend of loam soil and sand and treated preemergence with a directed soil spray using test chemicals formulated in a non-phytotoxic solvent mixture which included a surfactant.
(§2) At the same time, plants selected from these crop and weed species and also blackgrass (Alopecurus myosuroides), and galium (catchweed bedstraw, Galium aparine) were planted in pots containing the same blend of loam soil and sand and treated with postemergence applications of test chemicals formulated in the same manner. Plants ranged in height from 2 to 10 cm and were in the one- to two-leaf stage for the postemergence treatment. Treated plants and untreated controls were maintained in a greenhouse for approximately 10 days, after which time all treated plants were compared to untreated controls and visually evaluated for injury. Plant response ratings, summarized in Table A, are based on a 0 to 100 scale where 0 is no effect and 100 is complete control. A dash (-) response means no test result.

[2] = tested on: pigweed; test: Test A preemergence; format: in vivo, Amaranthus retroflexus; conditions: Preemergence, 0 to 100 scale, 0 no effect, 100 complete control
Description: as §1, §2

[3] = tested on: morningglory; test: Test A postemergence; format: in vivo, Ipomoea spp.
Method in brief: (§3)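 Both timings tested concurrently in loam/sand soil: preemergence by directed soil spray, postemergence on plants of 2–10 cm at the one- to two-leaf stage. Greenhouse holding period was approximately 10 days before visual injury assessment (0–100, 0 = no effect).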

[4] = tested on: velvetleaf; test: Test A preemergence; format: in vivo, Abutilon theophrasti; conditions: 0 to 100 scale
Method in brief: as §3

[5] = tested on: morningglory; test: Test A preemergence; format: in vivo, Ipomoea spp.; conditions: 0 to 100 scale
Method in brief: as §3

[6] = tested on: foxtail, giant; test: Test A postemergence; format: in vivo, Setaria faberii
Description: as §1, §2

[7] = tested on: pigweed; test: Test A postemergence; format: in vivo, Amaranthus retroflexus
Method in brief: as §3

[8] = tested on: crabgrass, large; test: Test A postemergence; format: in vivo, Digitaria sanguinalis
Description: as §1, §2

[9] = tested on: barnyardgrass; test: Test A postemergence; format: in vivo, Echinochloa crus-galli; conditions: Postemergence
Description: as §1, §2

[10] = tested on: barnyardgrass; test: Test A preemergence; format: in vivo, Echinochloa crus-galli; conditions: 0 to 100 scale
Description: as §1, §2

[11] = tested on: wheat; test: Test A preemergence; format: in vivo, Triticum aestivum
Method in brief: as §3

[12] = tested on: crabgrass, large; test: Test A preemergence; format: in vivo, Digitaria sanguinalis; conditions: 0 to 100 scale
Description: as §1, §2

[13] = tested on: velvetleaf; test: Test A postemergence; format: in vivo, Abutilon theophrasti
Method in brief: as §3

[14] = tested on: foxtail, giant; test: Test A preemergence; format: in vivo, Setaria faberii; conditions: 0 to 100 scale
Description: as §1, §2

[15] = tested on: corn; test: Test A preemergence; format: in vivo, Zea mays; conditions: 0 to 100 scale
Method in brief: as §3

[16] = tested on: wheat; test: Test A postemergence; format: in vivo, Triticum aestivum
Description: as §1, §2

[17] = Postemergence, 1000 g ai/ha, visual rating after approx. 10 days, 0 to 100 scale (0 no effect, 100 complete control)
[18] = Preemergence, 1000 g ai/ha, 0 no effect, 100 complete control
[19] = 1000 g ai/ha, visual rating after approx. 10 days, 0 to 100 scale (0 no effect, 100 complete control)
[20] = Preemergence, 1000 g ai/ha, 0 to 100 scale, 0 no effect, 100 complete control
[21] = preemergence, 500 g ai/ha, visual injury after approx. 10 days, 0 to 100 scale (0 no effect, 100 complete control)
[22] = Postemergence, 500 g ai/ha, visual rating after approx. 10 days, 0 to 100 scale (0 no effect, 100 complete control)
[23] = postemergence, 125 g ai/ha, about 10 days, visual rating on 0 to 100 scale (0 no effect, 100 complete control)
[24] = Preemergence, 500 g ai/ha, 0 no effect, 100 complete control
[25] = preemergence, 125 g ai/ha, visual injury, approx. 10 days

CCc1cc(C(=O)N(C)OC)nn1Cc1cccc(C(F)(F)F)c1 [Compound 66]
Corn plant response rating [1, 17]: 30
Pigweed plant response rating ([2]; 1000 g ai/ha): 50
Morningglory plant response rating [3, 17]: 50
Velvetleaf plant response rating [4, 18]: 20
Morningglory plant response rating [5, 18]: 30
Foxtail, Giant plant response rating [6, 17]: 40
Pigweed plant response rating [7, 17]: 50
Crabgrass, Large plant response rating [8, 17]: 20
Barnyardgrass plant response rating [9, 19]: 20
Barnyardgrass plant response rating [10, 18]: 0
Wheat plant response rating [11, 20]: 0
Wheat plant response rating [11, 21]: 0
Crabgrass, Large plant response rating [12, 18]: 50
Velvetleaf plant response rating [13, 17]: 40
Foxtail, Giant plant response rating [14, 18]: 100
Corn plant response rating [15, 18]: 0
Wheat plant response rating [16, 17]: 10

CCCNC(=O)c1cc(SC)n(Cc2cccc(C(F)(F)F)c2)n1 [Compound 25]
Corn plant response rating [1, 17]: 40
Pigweed plant response rating ([2]; 1000 g ai/ha): 0
Morningglory plant response rating [3, 17]: 100
Velvetleaf plant response rating [4, 18]: 0
Morningglory plant response rating [5, 18]: 0
Foxtail, Giant plant response rating [6, 17]: 20
Pigweed plant response rating [7, 17]: 10
Crabgrass, Large plant response rating [8, 17]: 30
Barnyardgrass plant response rating [9, 19]: 10
Barnyardgrass plant response rating [10, 18]: 0
Wheat plant response rating [11, 20]: 0
Crabgrass, Large plant response rating [12, 18]: 20
Velvetleaf plant response rating [13, 17]: 50
Foxtail, Giant plant response rating [14, 18]: 10
Corn plant response rating [15, 18]: 0
Wheat plant response rating [16, 17]: 0

C=CCNC(=O)c1cc(CC)n(Cc2cccc(OC(F)(F)F)c2)n1 [Compound 58]
Corn plant response rating [1, 17]: 20
Pigweed plant response rating ([2]; 1000 g ai/ha): 70
Morningglory plant response rating [3, 17]: 50
Velvetleaf plant response rating [4, 18]: 0
Morningglory plant response rating [5, 18]: 20
Foxtail, Giant plant response rating [6, 17]: 20
Pigweed plant response rating [7, 17]: 60
Crabgrass, Large plant response rating [8, 17]: 30
Barnyardgrass plant response rating [9, 19]: 20
Barnyardgrass plant response rating [10, 18]: 10
Wheat plant response rating [11, 20]: 0
Wheat plant response rating [11, 21]: 0
Crabgrass, Large plant response rating [12, 18]: 70
Velvetleaf plant response rating [13, 17]: 50
Foxtail, Giant plant response rating [14, 18]: 20
Corn plant response rating [15, 18]: 0
Wheat plant response rating [16, 17]: 0

CCNC(=O)c1cc(C2CC2)n(Cc2cccc(OC(F)(F)F)c2)n1 [Compound 39]
Corn plant response rating [1, 17]: 10
Pigweed plant response rating ([2]; 1000 g ai/ha): 0
Morningglory plant response rating [3, 17]: 60
Velvetleaf plant response rating [4, 18]: 0
Morningglory plant response rating [5, 18]: 0
Foxtail, Giant plant response rating [6, 17]: 10
Pigweed plant response rating [7, 17]: 40
Crabgrass, Large plant response rating [8, 17]: 10
Barnyardgrass plant response rating [9, 19]: 10
Barnyardgrass plant response rating [10, 18]: 0
Wheat plant response rating [11, 20]: 0
Crabgrass, Large plant response rating [12, 18]: 10
Velvetleaf plant response rating [13, 17]: 10
Foxtail, Giant plant response rating [14, 18]: 0
Corn plant response rating [15, 18]: 0
Wheat plant response rating [16, 17]: 0

Cc1cc(C(=O)NCC(F)(F)F)nn1Cc1cc(F)cc(C(F)(F)F)c1 [Compound 13]
Corn plant response rating [1, 22]: 0
Corn plant response rating [1, 23]: 0
Pigweed plant response rating ([2]; 500 g ai/ha): 90
Morningglory plant response rating [3, 22]: 100
Morningglory plant response rating [3, 23]: 50
Velvetleaf plant response rating [4, 24]: 0
Velvetleaf plant response rating [4, 25]: 0
Morningglory plant response rating [5, 25]: 0
Foxtail, Giant plant response rating [6, 22]: 20
Foxtail, Giant plant response rating [6, 23]: 0
Pigweed plant response rating [7, 22]: 60
Pigweed plant response rating [7, 23]: 40
Crabgrass, Large plant response rating [8, 22]: 30
Crabgrass, Large plant response rating [8, 23]: 20
Barnyardgrass plant response rating ([9]; 125 g ai/ha, 0 to 100 scale, 0 no effect, 100 complete control): 0
Barnyardgrass plant response rating ([9]; 500 g ai/ha, visual rating after approx. 10 days, 0 to 100 scale (0 no effect, 100 complete control)): 20
Barnyardgrass plant response rating [10, 24]: 0
Barnyardgrass plant response rating [10, 25]: 0
Wheat plant response rating ([11]; preemergence, 125 g ai/ha, visual injury, 0 to 100 scale, approx. 10 days): 0
Crabgrass, Large plant response rating [12, 24]: 70
Crabgrass, Large plant response rating [12, 25]: 10
Velvetleaf plant response rating [13, 22]: 20
Velvetleaf plant response rating [13, 23]: 0
Foxtail, Giant plant response rating [14, 24]: 50
Foxtail, Giant plant response rating [14, 25]: 0
Corn plant response rating [15, 24]: 0
Corn plant response rating [15, 25]: 0
Wheat plant response rating [16, 22]: 0
Wheat plant response rating [16, 23]: 0

CCc1cc(C(=O)NC2CC2)nn1Cc1cccc(C(F)(F)F)c1 [Compound 15]
Corn plant response rating [1, 17]: 70
Pigweed plant response rating ([2]; 1000 g ai/ha): 90
Morningglory plant response rating [3, 17]: 100
Velvetleaf plant response rating [4, 18]: 100
Morningglory plant response rating [5, 18]: 90
Foxtail, Giant plant response rating [6, 17]: 90
Pigweed plant response rating [7, 17]: 80
Crabgrass, Large plant response rating [8, 17]: 90
Barnyardgrass plant response rating [9, 19]: 80
Barnyardgrass plant response rating [10, 18]: 90
Wheat plant response rating [11, 20]: 20
Crabgrass, Large plant response rating [12, 18]: 100
Velvetleaf plant response rating [13, 17]: 100
Foxtail, Giant plant response rating [14, 18]: 100
Corn plant response rating [15, 18]: 20
Wheat plant response rating [16, 17]: 50

CCCNC(=O)c1cc(C2CC2)n(Cc2cccc(OC(F)(F)F)c2)n1 [Compound 38]
Corn plant response rating [1, 17]: 30
Pigweed plant response rating ([2]; 1000 g ai/ha): 0
Morningglory plant response rating [3, 17]: 100
Velvetleaf plant response rating [4, 18]: 0
Morningglory plant response rating [5, 18]: 0
Foxtail, Giant plant response rating [6, 17]: 10
Pigweed plant response rating [7, 17]: 40
Crabgrass, Large plant response rating [8, 17]: 10
Barnyardgrass plant response rating [9, 19]: 10
Barnyardgrass plant response rating [10, 18]: 0
Wheat plant response rating [11, 20]: 0
Crabgrass, Large plant response rating [12, 18]: 20
Velvetleaf plant response rating [13, 17]: 50
Foxtail, Giant plant response rating [14, 18]: 0
Corn plant response rating [15, 18]: 0
Wheat plant response rating [16, 17]: 0
